Species: Rattus norvegicus
Assay: DrugMatrix - Regimen: Daily Repeat
Format: toxicity, organism-based, Sprague-Dawley
Set-up: regimen Daily Repeat, gender Male, age 6-8 weeks
Conditions: in vivo, po, route oral GAVAGE, vehicle .5 % CMC; for ABSOLUTE BASOPHIL / ABSOLUTE EOSINOPHIL / ABSOLUTE LYMPHOCYTE / ABSOLUTE MONOCYTE / ABSOLUTE SEGMENTED NEUTROPHIL / BASOPHIL / EOSINOPHIL / ERYTHROCYTE COUNT / HEMATOCRIT / HEMOGLOBIN / LEUKOCYTE COUNT / LYMPHOCYTE / MEAN CORPUSCULAR HEMOGLOBIN / MEAN CORPUSCULAR HEMOGLOBIN CONCENTRATION / MEAN CORPUSCULAR VOLUME / MONOCYTE / NEUTROPHIL / NUCLEATED RED BLOOD CELLS / PLATELET COUNT: tissue Blood; for ALANINE AMINOTRANSFERASE / ALBUMIN / ALKALINE PHOSPHATASE / ASPARTATE AMINOTRANSFERASE / BLOOD UREA NITROGEN / CARBON DIOXIDE / CHLORIDE / CHOLESTEROL / CREATINE PHOSPHOKINASE / CREATININE / GLUCOSE / LACTATE DEHYDROGENASE / LIPASE / PHOSPHORUS / POTASSIUM / SODIUM / TOTAL BILIRUBIN / TOTAL PROTEIN / URIC ACID: tissue Plasma
[1] = 0 mg/kg, 72 h, dose level Control, time 3 day
[2] = 0 mg/kg, 120 h, dose level Control, time 5 day
[3] = 30 mg/kg, 72 h, dose level Low, time 3 day
[4] = 30 mg/kg, 120 h, dose level Low, time 5 day

COc1cc(OC)c(C(=O)CCCN2CCCC2)c(OC)c1 [BUFLOMEDIL]
ABSOLUTE BASOPHIL [1]: 0 CELLS/uL
ABSOLUTE EOSINOPHIL [1]: 0 CELLS/uL
ABSOLUTE LYMPHOCYTE [1]: 10913.67 CELLS/uL
ABSOLUTE MONOCYTE [1]: 85.33 CELLS/uL
ABSOLUTE SEGMENTED NEUTROPHIL [1]: 1401 CELLS/uL
BASOPHIL [1]: 0%
EOSINOPHIL [1]: 0%
ERYTHROCYTE COUNT [1]: 5.57 x10E6/uL
HEMATOCRIT [1]: 35.58%
HEMOGLOBIN [1]: 13.8 G/DL
LEUKOCYTE COUNT [1]: 12.4 x10E3/uL
LYMPHOCYTE [1]: 88%
MEAN CORPUSCULAR HEMOGLOBIN [1]: 24.78 pg
MEAN CORPUSCULAR HEMOGLOBIN CONCENTRATION [1]: 38.82 G/DL
MEAN CORPUSCULAR VOLUME [1]: 63.88 fL
MONOCYTE [1]: 0.67%
NEUTROPHIL [1]: 11.33%
NUCLEATED RED BLOOD CELLS [1]: 0 /100WBC
PLATELET COUNT [1]: 1162.33 x10E3/uL
ALANINE AMINOTRANSFERASE [1]: 53 u/L
ALBUMIN [1]: 4.17 G/DL
ALKALINE PHOSPHATASE [1]: 374.5 u/L
ASPARTATE AMINOTRANSFERASE [1]: 89.5 u/L
BLOOD UREA NITROGEN [1]: 16.33 mg/dL
CARBON DIOXIDE [1]: 29.17 mmol/L
CHLORIDE [1]: 97.67 MEQ/L
CHOLESTEROL [1]: 77 mg/dL
CREATINE PHOSPHOKINASE [1]: 464.83 u/L
CREATININE [1]: 0.14 mg/dL
GLUCOSE [1]: 164 mg/dL
LACTATE DEHYDROGENASE [1]: 155.5 u/L
LIPASE [1]: 9.17 u/L
PHOSPHORUS [1]: 12.4 mg/dL
POTASSIUM [1]: 6.91 MEQ/L
SODIUM [1]: 141.47 MEQ/L
TOTAL BILIRUBIN [1]: 0.2 mg/dL
TOTAL PROTEIN [1]: 5.95 G/DL
URIC ACID [1]: 1.72 mg/dL
ABSOLUTE BASOPHIL [2]: 0 CELLS/uL
ABSOLUTE EOSINOPHIL [2]: 20.5 CELLS/uL
ABSOLUTE LYMPHOCYTE [2]: 13871.67 CELLS/uL
ABSOLUTE MONOCYTE [2]: 60.5 CELLS/uL
ABSOLUTE SEGMENTED NEUTROPHIL [2]: 980.67 CELLS/uL
BASOPHIL [2]: 0%
EOSINOPHIL [2]: 0.17%
ERYTHROCYTE COUNT [2]: 5.65 x10E6/uL
HEMATOCRIT [2]: 35.63%
HEMOGLOBIN [2]: 14.08 G/DL
LEUKOCYTE COUNT [2]: 14.93 x10E3/uL
LYMPHOCYTE [2]: 92.83%
MEAN CORPUSCULAR HEMOGLOBIN [2]: 24.97 pg
MEAN CORPUSCULAR HEMOGLOBIN CONCENTRATION [2]: 39.55 G/DL
MEAN CORPUSCULAR VOLUME [2]: 63.13 fL
MONOCYTE [2]: 0.33%
NEUTROPHIL [2]: 6.67%
NUCLEATED RED BLOOD CELLS [2]: 0 /100WBC
PLATELET COUNT [2]: 1248.17 x10E3/uL
ALANINE AMINOTRANSFERASE [2]: 45.17 u/L
ALBUMIN [2]: 4.27 G/DL
ALKALINE PHOSPHATASE [2]: 405.67 u/L
ASPARTATE AMINOTRANSFERASE [2]: 74.17 u/L
BLOOD UREA NITROGEN [2]: 15.5 mg/dL
CARBON DIOXIDE [2]: 30.17 mmol/L
CHLORIDE [2]: 100.67 MEQ/L
CHOLESTEROL [2]: 57 mg/dL
CREATINE PHOSPHOKINASE [2]: 239.5 u/L
CREATININE [2]: 0.17 mg/dL
GLUCOSE [2]: 165.67 mg/dL
LACTATE DEHYDROGENASE [2]: 90.5 u/L
LIPASE [2]: 8.83 u/L
PHOSPHORUS [2]: 12.32 mg/dL
POTASSIUM [2]: 7.03 MEQ/L
SODIUM [2]: 142.65 MEQ/L
TOTAL BILIRUBIN [2]: 0.18 mg/dL
TOTAL PROTEIN [2]: 6.03 G/DL
URIC ACID [2]: 1.98 mg/dL
ABSOLUTE BASOPHIL [3]: 0 CELLS/uL
ABSOLUTE EOSINOPHIL [3]: 0 CELLS/uL
ABSOLUTE LYMPHOCYTE [3]: 12859.33 CELLS/uL
ABSOLUTE MONOCYTE [3]: 198 CELLS/uL
ABSOLUTE SEGMENTED NEUTROPHIL [3]: 1176 CELLS/uL
BASOPHIL [3]: 0%
EOSINOPHIL [3]: 0%
ERYTHROCYTE COUNT [3]: 5.25 x10E6/uL
HEMATOCRIT [3]: 33.97%
HEMOGLOBIN [3]: 14.13 G/DL
LEUKOCYTE COUNT [3]: 14.23 x10E3/uL
LYMPHOCYTE [3]: 90%
MEAN CORPUSCULAR HEMOGLOBIN [3]: 25.77 pg
MEAN CORPUSCULAR HEMOGLOBIN CONCENTRATION [3]: 39.67 G/DL
MEAN CORPUSCULAR VOLUME [3]: 64.9 fL
MONOCYTE [3]: 1.33%
NEUTROPHIL [3]: 8.67%
NUCLEATED RED BLOOD CELLS [3]: 0 /100WBC
PLATELET COUNT [3]: 1306 x10E3/uL
ALANINE AMINOTRANSFERASE [3]: 53 u/L
ALBUMIN [3]: 4.17 G/DL
ALKALINE PHOSPHATASE [3]: 441 u/L
ASPARTATE AMINOTRANSFERASE [3]: 83.33 u/L
BLOOD UREA NITROGEN [3]: 16.67 mg/dL
CARBON DIOXIDE [3]: 27.67 mmol/L
CHLORIDE [3]: 98 MEQ/L
CHOLESTEROL [3]: 75.33 mg/dL
CREATINE PHOSPHOKINASE [3]: 360 u/L
CREATININE [3]: 0.1 mg/dL
GLUCOSE [3]: 146 mg/dL
LACTATE DEHYDROGENASE [3]: 180.33 u/L
LIPASE [3]: 9.33 u/L
PHOSPHORUS [3]: 13.93 mg/dL
POTASSIUM [3]: 6.77 MEQ/L
SODIUM [3]: 143.3 MEQ/L
TOTAL BILIRUBIN [3]: 0.23 mg/dL
TOTAL PROTEIN [3]: 5.9 G/DL
URIC ACID [3]: 1.47 mg/dL
ABSOLUTE BASOPHIL [4]: 0 CELLS/uL
ABSOLUTE EOSINOPHIL [4]: 0 CELLS/uL
ABSOLUTE LYMPHOCYTE [4]: 10085.67 CELLS/uL
ABSOLUTE MONOCYTE [4]: 133.67 CELLS/uL
ABSOLUTE SEGMENTED NEUTROPHIL [4]: 980.67 CELLS/uL
BASOPHIL [4]: 0%
EOSINOPHIL [4]: 0%
ERYTHROCYTE COUNT [4]: 5.03 x10E6/uL
HEMATOCRIT [4]: 33.2%
HEMOGLOBIN [4]: 13.3 G/DL
LEUKOCYTE COUNT [4]: 11.2 x10E3/uL
LYMPHOCYTE [4]: 91.33%
MEAN CORPUSCULAR HEMOGLOBIN [4]: 26.47 pg
MEAN CORPUSCULAR HEMOGLOBIN CONCENTRATION [4]: 40.07 G/DL
MEAN CORPUSCULAR VOLUME [4]: 66.07 fL
MONOCYTE [4]: 1%
NEUTROPHIL [4]: 7.67%
NUCLEATED RED BLOOD CELLS [4]: 0 /100WBC
PLATELET COUNT [4]: 833 x10E3/uL
ALANINE AMINOTRANSFERASE [4]: 55.67 u/L
ALBUMIN [4]: 4.23 G/DL
ALKALINE PHOSPHATASE [4]: 308.33 u/L
ASPARTATE AMINOTRANSFERASE [4]: 81 u/L
BLOOD UREA NITROGEN [4]: 17.33 mg/dL
CARBON DIOXIDE [4]: 26.33 mmol/L
CHLORIDE [4]: 102.33 MEQ/L
CHOLESTEROL [4]: 64 mg/dL
CREATINE PHOSPHOKINASE [4]: 354.67 u/L
CREATININE [4]: 0.13 mg/dL
GLUCOSE [4]: 152.33 mg/dL
LACTATE DEHYDROGENASE [4]: 110.67 u/L
LIPASE [4]: 12 u/L
PHOSPHORUS [4]: 12.5 mg/dL
POTASSIUM [4]: 6.61 MEQ/L
SODIUM [4]: 143.1 MEQ/L
TOTAL BILIRUBIN [4]: 0.2 mg/dL
TOTAL PROTEIN [4]: 5.97 G/DL
URIC ACID [4]: 2.27 mg/dL
